This passage reports TGI and GI50 results from PubChem BioAssay (NCI).

SMILES strings stand for the structures.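 In this assay, cells in 96-well plates receive the compound at five concentrations for 48 hours. Endpoints are linearly interpolated between the surrounding concentrations. GI50: concentration for 50% inhibition of growth. TGI is the concentration that stops growth completely.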

Among the test systems are SR leukemia; IGROV1 ovarian; RPMI-8226 leukemia; HL-60(TB) leukemia; NCI-H23 lung; ACHN renal; SK-MEL-2 melanoma; SN12C renal; PC-3 prostate.
Common to all, as to experiment: NCI-60 cell line screen, 48 h

As to `Cc1ccc(NC(=O)C(=O)C(C#N)c2ccccc2C)cc1C` (stereo not drawn), the TGI is over 100 µM in the assay on SR leukemia; over 100 µM in the assay with IGROV1 ovarian; over 100 µM in the assay with RPMI-8226 leukemia; over 85.8 µM with HL-60(TB) leukemia; over 100 µM in the assay on NCI-H23 lung; over 100 µM in the assay on ACHN renal. Also, the TGI in the assay with SK-MEL-2 melanoma and in the assay with SN12C renal was over 100 µM throughout.

For `O=C(N/C(=C\c1ccc2c(c1)OCO2)c1nc2ccccc2[nH]1)c1ccccc1`, the TGI in the assay on SR leukemia was 72.3 µM; in the assay on IGROV1 ovarian it was 77.3 µM; in the assay on RPMI-8226 leukemia, 83.9 µM; in the assay with HL-60(TB) leukemia, 37.4 µM; in the assay with NCI-H23 lung it was 53.4 µM; in the assay on ACHN renal, over 100 µM. The TGI in the assay on SK-MEL-2 melanoma is 55.9 µM; with SN12C renal, over 84.1 µM.

On to `CCCCC(CC)CN=C(N)NC(N)=NCCCCCCN=C(N)NC(N)=NCC(CC)CCCC` (stereo not drawn), for which the GI50 in the assay on HL-60(TB) leukemia was 2070 nM; in the assay with ACHN renal, 2.85 µM; with SN12C renal, 1.52 µM. The TGI came out at 3.97 µM with HL-60(TB) leukemia, 7.74 µM in the assay with ACHN renal and 4.39 µM in the assay on SN12C renal.

With `Nc1nc2c(c3ncncc13)C(c1cccc(C(F)(F)F)c1)Cc1ncncc1-2` (stereo not drawn), the GI50 was 8.06 µM with IGROV1 ovarian; 5.33 µM in the assay with RPMI-8226 leukemia; 3440 nM with HL-60(TB) leukemia; 5.17 µM in the assay on NCI-H23 lung; 7.06 µM in the assay with ACHN renal; 5.36 µM in the assay on SK-MEL-2 melanoma. Also, the GI50 with SN12C renal is 7.66 µM; with PC-3 prostate, 4.71 µM. For the same compound, the TGI in the assay on IGROV1 ovarian was 74.9 µM; in the assay with RPMI-8226 leukemia it was 43.8 µM; in the assay on HL-60(TB) leukemia, 14.1 µM; in the assay with NCI-H23 lung it was over 100 µM; in the assay with ACHN renal it was 41.6 µM; in the assay on SK-MEL-2 melanoma, 29.7 µM. Besides, the TGI with SN12C renal was 49.2 µM; in the assay on PC-3 prostate, over 100 µM.

For the compound `COc1ccc(OC)c(NC(=O)C2=C(C)NC(C)=C(C(=O)Nc3cc(OC)ccc3OC)C2c2ccccc2)c1`, the TGI in the assay on IGROV1 ovarian, in the assay on RPMI-8226 leukemia, with NCI-H23 lung, with ACHN renal, in the assay with SK-MEL-2 melanoma and with SN12C renal was over 100 µM in each case.

As for `CC1=C(Oc2ccccc2)C(CCC(=O)O)c2c(O)cc(Cl)c(O)c21` (stereo not drawn), the TGI in the assay with SR leukemia, in the assay on IGROV1 ovarian, with RPMI-8226 leukemia, in the assay on HL-60(TB) leukemia, in the assay with NCI-H23 lung and in the assay with SK-MEL-2 melanoma was over 100 µM throughout. The same compound registered a TGI in the assay on SN12C renal of over 100 µM.

As for `Cc1ccc(C(=O)c2nnc(C(=O)c3ccc(C)cc3)nn2)cc1`, the TGI in the assay on SR leukemia was 37.6 µM; in the assay with IGROV1 ovarian, over 100 µM; in the assay on RPMI-8226 leukemia, over 100 µM; in the assay with HL-60(TB) leukemia, 48.2 µM; in the assay on NCI-H23 lung, over 100 µM; in the assay with ACHN renal it was over 100 µM. Moreover, the TGI with SK-MEL-2 melanoma and in the assay on SN12C renal was over 100 µM each time.

For the compound `CC1=Nc2ccccc2S/C1=C(/C)NNC(=O)C(N)=O`, the TGI in the assay with IGROV1 ovarian, in the assay with RPMI-8226 leukemia, in the assay on HL-60(TB) leukemia, in the assay on NCI-H23 lung, with ACHN renal and in the assay on SK-MEL-2 melanoma was over 100 µM in each case. This compound also displayed a TGI with SN12C renal of over 100 µM.

As to `Cc1ccc(N=Cc2ccc3c(c2)OCO3)cc1C`, the TGI with SR leukemia, with IGROV1 ovarian, in the assay with RPMI-8226 leukemia, in the assay with HL-60(TB) leukemia, in the assay on NCI-H23 lung and in the assay with ACHN renal was over 100 µM each time. Further, the TGI in the assay on SK-MEL-2 melanoma and in the assay on SN12C renal was over 100 µM in each case.

As to `CCOc1ccc(NC(=O)C(=O)CC(=O)C2=C(C)Nc3ccccc3S2)cc1`, the TGI with IGROV1 ovarian, in the assay with RPMI-8226 leukemia, in the assay with NCI-H23 lung, with ACHN renal, in the assay on SK-MEL-2 melanoma and with SN12C renal was over 50 µM throughout.

Turning to `CC1=C(C)C(=O)c2c(cc3ccccn23)C1=O`, the TGI was 72.5 µM in the assay with SR leukemia; 54.5 µM with IGROV1 ovarian; 65.9 µM with RPMI-8226 leukemia; 43.2 µM in the assay on HL-60(TB) leukemia; 23.3 µM in the assay with NCI-H23 lung; over 100 µM in the assay with ACHN renal. In addition, in the assay with SN12C renal, the TGI came to 27.1 µM.

`Cc1cc(N(CCC#N)CCC#N)ccc1N=Nc1cccc(C(=O)O)c1`: the TGI with IGROV1 ovarian, with HL-60(TB) leukemia, with NCI-H23 lung, in the assay with ACHN renal, in the assay on SK-MEL-2 melanoma and in the assay with SN12C renal was over 100 µM each time.

As to `COc1cc(OC(C)=O)cc2c(OC(C)=O)ccc(OC(C)=O)c12`, the TGI in the assay on SR leukemia, in the assay on IGROV1 ovarian, in the assay with RPMI-8226 leukemia, with HL-60(TB) leukemia, in the assay on NCI-H23 lung and with ACHN renal was over 100 µM throughout. The TGI with SK-MEL-2 melanoma and with SN12C renal was over 100 µM each time.

For the compound `COc1cc(C(=O)C/C(CCCC(=O)Nc2ccccc2[N+](=O)[O-])=N/NC(=O)c2cc3ccccc3cc2O)ccc1O`, the TGI is over 100 µM in the assay on IGROV1 ovarian; over 100 µM in the assay with RPMI-8226 leukemia; 51.3 µM in the assay with HL-60(TB) leukemia; over 100 µM in the assay with NCI-H23 lung; 98.3 µM in the assay with ACHN renal; over 100 µM in the assay with SK-MEL-2 melanoma. This compound also gave a TGI in the assay with SN12C renal of over 100 µM.

Turning to `O=C(CN1CCOCC1)Nc1nc(-c2ccc(Cl)cc2)cs1`, the TGI in the assay with IGROV1 ovarian was over 100 µM; in the assay on RPMI-8226 leukemia it was 53.7 µM; in the assay with HL-60(TB) leukemia, 44.9 µM; with NCI-H23 lung, 40.1 µM; with ACHN renal, 79.6 µM; in the assay on SK-MEL-2 melanoma, 54.5 µM. Besides, in the assay with SN12C renal, the TGI was over 100 µM.

In the case of `COC(=O)C(=O)C1(CCC(C)=O)c2ccccc2-c2c(C)ccc(C)c21` (stereo not drawn), the TGI with SR leukemia is 61.5 µM; with IGROV1 ovarian it was over 100 µM; in the assay on RPMI-8226 leukemia, 78.6 µM; in the assay with HL-60(TB) leukemia it was 32.1 µM; in the assay with NCI-H23 lung it was over 100 µM; with ACHN renal it was over 100 µM. The TGI with SK-MEL-2 melanoma and in the assay on SN12C renal was over 100 µM each time.
